How the values were obtained:
[1] = tested on: scopolamine cognitive deficit; test: Scopolamine-induced dementia, new-object recognition; assay type: in vivo, rats; details: 4 and 8 mg/kg p.o., 1 hour before scopolamine 1 mg/kg i.p.
Description: FIG. 12. Effect of KM-34 on the recognition memory of new objects. In the new-object recognition test, KM-34 (2, 4 and 8 mg/kg, p.o) was administered 1 hour prior to scopolamine (1 mg/kg, i.p.) prior to the training phase. The results are expressed as the discrimination rate of the total time by scanning the object N with respect to F. The data are expressed as mean ± SD (n=8, per group). For statistical analysis, ANOVA and Tukey's multiple comparison test were performed. Different letters differ from each other for p<0.01.
In in vivo models, KM-34 was administered orally (p.o) at a rate of 4 mL/kg body weight. Doses of 2, 4 and 8 mg/kg were evaluated as acute administration 90 minutes before the start of behavioral tests. For administration the compound was suspended in carboxymethylcellulose (CMC) 0.05%. Scopolamine bromide was dissolved in 0.9% saline solution and administered intraperitoneally as a single dose (1 mg/kg, 4 mL/kg body weight) 30 minutes prior to the initiation of the behavioral tests. […]
This trial was conducted as proposed by Capurro et al. (Capurro et al., 2013), in an open field, on two successive days. […] The tests were video-recorded for the analysis of the exploration of the objects, defined by the time of exploration that the animal performs to each object. The discrimination rates between the F and N objects were calculated as: ID=(N−F)/(N+F).

[2] = tested on: scopolamine cognitive deficit; test: Scopolamine-induced dementia, T maze spontaneous alternation; assay type: in vivo, rats; details: 2, 4 and 8 mg/kg p.o., 1 hour before scopolamine 1 mg/kg i.p.
Description: FIG. 11. Effect of KM-34 on spatial memory. In the T labyrinth, KM-34 (2, 4 and 8 mg/k, p.o) was given 1 hour prior to scopolamine (1 mg/kg, i.p.). Data are expressed as mean ± SD (n=7, per group) of the percentage of spontaneous alternation. For statistical anal sis ANOVA and Tukey's multiple comparison test were performed. Different letters differ from each other for p<0.01. In in vivo models, KM-34 was administered orally (p.o) at a rate of 4 mL/kg body weight. Doses of 2, 4 and 8 mg/kg were evaluated as acute administration 90 minutes before the start of behavioral tests. For administration the compound was suspended in carboxymethylcellulose (CMC) 0.05%. Scopolamine bromide was dissolved in 0.9% saline solution and administered intraperitoneally as a single dose (1 mg/kg, 4 mL/kg body weight) 30 minutes prior to the initiation of the behavioral tests. The animals were randomly selected and divided into 5 experimental groups with different treatments (n=7, per group): control group (CMC and saline), vehicle group (CMC and scopolamine 1 mg/kg), KM-34 (KM-34 4 mg/kg and scopolamine 1 mg/kg) and (KM-34 8 mg/kg and scopolamine 1 mg/kg). […] The series of entries to each arm was recorded and the percentage of alternation was calculated as: (number of alternations performed/total of possible alternations)×100. […]

PC12 cells = test: Cytoprotection against H2O2 damage in PC12 cells (MTT); assay type: cell-based
Description: FIG. 7. Cytoprotective effect of KM-34 (1-100 μM) against damage induced by H2O2 (150 μM) in cultures of PC12 cells. Viability (% live cells) was determined by the MTT assay. Cells were seeded at a density of 5×10^5 cells/mL in a 96-well plate. The KM-34 was added simultaneously to the addition of the H2O2 mixture. The culture was then allowed to incubate at 37° C, […] and 5% CO 2 for 4 hours. After this time the supernatant was removed and the cells were incubated with 20 μg of MTT for an additional 2 hours and the absorbance at 450 nm was measured with reference to 630 nm. The results are expressed as percentage of live cells relative to the control (undamaged cells, 100% live cells). The * represents significant differences (p<0.05) with respect to the H2O2 control.
FIG. 15. The survival rate for […] administered 150 μM H2O2 is shown. The control group was not administered 150 μM H2O2. The remaining four groups were administered 150 μM H2O2. The “H2O2 150 μM” group was not administered any compounds of the invention. The “JM 1 μM” group was administered 1 μM JM-20. The “KM 0.1 μM” group was administered 0.1 μM KM-34. The “JM 1 μM+KM 0.1 μM” group was administered 1 μM JM-20 and 0.1 μM KM-34.
H2O2 is formed in vivo spontaneously or enzymatically. At low concentrations this may be poorly reactive, however at high concentrations it may interact with and generate inactivation of the energy generating systems of the cells. In addition H2O2 is able to oxidize —SH groups of proteins and cause DNA strand rupture. Their most damaging effect is the formation of catalyzed transition metals by the Fenton-Habber-Weiss reaction (Martinez, 2005). This is based on the use of H2O2 in this test, with the aim of observing if the KM-34 is capable of reversing the damages caused by the chemical agent.

CC1(C)OC(=O)C(=Cc2ccc(O)c(O)c2)C(=O)O1 [KM-34, 5-[(3,4-dihydroxyphenyl)methylidene]-2,2-dimethyl-1,3-dioxane-4,6-dione]
Recognition memory, discrimination index of new objects [1]: able to revert the affectation on the learning and the memory of term recognition induced by scopolamine | Spatial memory, percentage of spontaneous alternation in T maze [2]: significantly (p<0.01) protected from spatial memory damage | Concentration achieving significant cellular survival against H2O2 (PC12 cells; 150 μM H2O2, 4 hours): higher than 5 μM | % cell survival (PC12 cells; 150 μM H2O2, concentrations higher than 50 μM): ~90% | Cellular survival response (PC12 cells; 150 μM H2O2, from 25 μM KM-34): higher than 50%
